Laboratory results taken from patent publication US20130177528A1, “COMPOSITIONS AND METHODS FOR INHIBITING VIRAL INFECTION” (WESTERN UNIVERSITY OF HEALTH SCIENCES, priority 2011, published 2013).

How the values were obtained:
HSV-1 (KOS) gL86 [1] = assay: HSV-1 infection of HeLa cells at MOIs 5, 15 and 25 PFU/cell (Example 6); format: cell-based, herpes simplex virus type-1; details: virus pre-incubated 180 min, 6 hr
Method: HeLa cells were each grown to 100% confluency in 96-well plates. The β-galactosidase-expressing recombinant virus HSV-1 (KOS) HSV-1 gL86 […] was pre-incubated at MOIs of 5 (FIG. 10, panel A), 15 (FIG. 10, panel B) and 25 (FIG. 10, panel C) plaque-forming units per cell (PFU) with VCN (VN), CN or ADAM15 (Ad15) at the concentrations indicated or mock treated with 1 X phosphate saline buffer for 180 min at room temperature. After 6 hr, the cells were washed, permeabilized and incubated with ONPG substrate (3.0 mg/ml). The β-gal enzymatic activity was measured at an optical density of 410 nm (OD 410). Mock treated HSV-1 with PBS was used as a […] control ((+) infected with virus alone; (−) uninfected control).

HSV-1 (KOS) gL86 [2] = assay: HSV-1 infection of HeLa, Vero and 293T cells, virus pre-incubated (Example 3); format: cell-based, herpes simplex virus type-1; details: HeLa cells; virus 30 pfu/cell pre-incubated 90 min; 6 hr
Method: CN blocks herpes simplex virus type-1 (HSV-1) infection of natural target cells. HeLa, Vero and 293T cells were each grown to 100% confluency in 96-well plates. The β-galactosidase-expressing recombinant virus HSV-1 (KOS) HSV-1 gL86 (30 pfu/cell) was pre-incubated with CN at the concentration indicated in FIG. 7 or mock treated with 1 X phosphate saline buffer for 90 min at room temperature. After 6 hr, the cells were washed, permeabilized and incubated with ONPG substrate (3.0 mg/ml). The β-gal enzymatic activity was measured at an optical density of 410 nm (OD 410). Each value shown in FIG. 7 is the mean of three or more determinations (±SD). Mock treated HSV-1 with PBS was used as a control. HSV-1 infection of HeLa (panel A) and Vero and 293T cells (panel B) was blocked by CN.

[3] = system: HSV-2 (333 gJ-reporter virus); assay: HSV-2 infection of HeLa cells, ONPG assay (Example 4); format: cell-based; details: virus pre-incubated; starting concentration 1 mg/ml
Method: In this experiment different clinical strains of HSV-1 (F, G, and MP strains of HSV-1 [37] at 25 pfu/cell) were either pre-incubated with 1×PBS (control) or with CN at the concentrations indicated in FIG. 8, panel A for 90 min at room temperature. After 90 min of incubation the two pools of viruses were incubated with Nectin-1 receptor expressing CHO Igβ cells that express β-galactosidase upon viral entry as described. The viral infection blocking was measured by ONPG assay (FIG. 8, panel A). Similar experiment was conducted using Lac Z encoded HSV-2 (333 gJ-reporter virus). HSV-2 is a genital herpes virus. […] Each value shown is the mean of three or more determinations (±SD).

[4] = system: β-galactosidase-expressing recombinant Adenovirus; assay: Adenovirus infection of HeLa cells (Example 7); format: cell-based; details: similar experiments as for CN
Method: HeLa cells were infected with a β-galactosidase-expressing recombinant Adenovirus were pre-incubated with CN at (1) the dilution indicated in FIG. 11, panel A (stock concentration 22 nM) or (2) the concentrations indicated in FIG. 11, panel B, or mock treated with 1 X phosphate saline buffer for 90 min at room temperature. After 12 hr, the cells were washed, permeabilized and incubated with ONPG substrate (3.0 mg/ml) for quantitation of β-galactosidase activity expressed from the input viral genome. Positive (Pos) infected with virus alone; Negative (Neg) uninfected control. The enzymatic activity was measured at an optical density of 410 nm (OD 410).

Row | Molecule | HSV-1 infection of HeLa cells, blocking and rank order (β-gal activity, OD 410) (HSV-1 (KOS) gL86 [1]) | HSV-1 infection (β-gal activity, OD 410) (HSV-1 (KOS) gL86 [2]) | HSV-2 infection of HeLa cells (dose response, ONPG assay) [3] | IC50 [4]
1 | vicrostatin [VCN] | blocked by CN >VCN >ADAM15 | blocked HSV-1 infection of HeLa cells | significantly inhibited HSV-2 infection | 21 µM
2 | ADAM15: ADAM15 (Ad15) polypeptide tested against HSV-1; exact construct not stated (protein, UniProt Q13444 207-863, looked up) Disintegrin and …: DVVTETKTVELVIVADHSEAQKYRDFQHLLNRTLEVALLLDTFFRPLNVRVALVGLEAWTQRDLVEISPNPAVTLENFLHWRRAHLLPRLPHDSAQLVTGTSFSGPTVGMAIQNSICSPDFSGGVNMDHSTSILGVASSIAHELGHSLGLDHDLPGNSCPCPGPAPAKTCIMEASTDFLPGLNFSNCSRRALEKALLDGMGSCLFERLPSLPPMAAFCGNMFVEPGEQCDCGFLDDCVDPCCDSLTCQLRPGAQCASDGPCCQNCQLRPSGWQCRPTRGDCDLPEFCPGDSSQCPPDVSLGDGEPCAGGQAVCMHGRCASYAQQCQSLWGPGAQPAAPLCLQTANTRGNAFGSCGRNPSGSYVSCTPRDAICGQLQCQTGRTQPLLGSIRDLLWETIDVNGTELNCSWVHLDLGSDVAQPLLTLPGTACGPGLVCIDHRCQRVDLLGAQECRSKCHGHGVCDSNRHCYCEEGWAPPDCTTQLKATSSLTTGLLLSLLVLLVLVMLGASYWYRARLHQRLCQLKGPTCQYRAAQSGPSERPGPPQRALLARGTKQASALSFPAPPSRPLPPDPVSKRLQAELADRPNPPTRPLPADPVVRSPKSQGPAKPPPPRKPLPADPQGRCPSGDLPGPGAGIPPLVVPSRPAPPPPTVSSLYL | blocked by CN >VCN >ADAM15 | – | – | –
